Measurements: US11571418B2, “Platinum compounds that inhibit constitutive STAT3 signaling and induce cell cycle arrest and apoptosis of malignant cells” (H. LEE MOFFITT CANCER CENTER AND RESEARCH INSTITUTE, INC., priority 2011, dated 2023)

Legend:
inactive Stat5 monomer = experiment: Inactive STAT monomer added to activated Stat3 before EMSA (titration of compound); type: binding
NFκB-Luc = experiment: NFκB promoter-driven luciferase reporter assay; type: cell-based; details: transient transfection in mouse fibroblasts
Experimental: FIGS. 3A-3D. Inhibition of Stat3-mediated gene expression by PLATINUM-401. (FIG. 3A) and (FIG. 3B) v-Src-transformed mouse fibroblasts that stably express Stat3-dependent (NIH3T3/v-Src/pLucTKS3) and Stat3-independent (NIH3T3/v-Src/pRLSRE) luciferase reporters or β-galactosidase (β-gal), as well as normal mouse fibroblast (NIH3T3) transiently transfected with pLucTKS3, pGL2-VEGF-Luc, NFkB-Luc or pLucSRE together with or without v-Src were treated with or without PLATINUM-401 for 48 h. Cytosolic extracts were then prepared from cells for luciferase and […] activities measurements. […]
Cell proliferation and TUNEL assays—Proliferating cells were first treated with or without PLATINUM-401 for up to 48 h. A portion of cells were harvested for BrdU incorporation following the manufacturer's (BD Biosciences Pharmingen, San Diego, Calif.) instructions and analyzed by flow cytometry. Harvested cells were also analyzed for apoptosis via detection of TdT-mediated dUTP nick-end labeling (TUNEL) assay using Apoptosis Detection Systems Fluorescein according to the manufacturer's (Roche, Indianapolis, Ind.) instructions. […]
To further investigate the activities of PLATINUM-401, the inventors treated malignant cells and measured effects on Stat3 signaling. […]

Cyclin D1 = Cyclin D1 detection, in situ and Western blot; type: cell-based, mouse; details: NIH3T3/v-Src, 48 h
Experimental: FIGS. 8A and 8B. Inhibition of Cyclin D1 and Bcl-xL induction by PLATINUM-401. Viral Src-transformed fibroblasts (NIH3T3/v-Src) and human breast cancer cell line MDA-MB-435 that contain constitutively-activated Stat3 were treated with or without platinum complex for 48 h. Cells were processed for immunohistochemistry, or cell lysates were prepared from cells and subjected to 5% PAGE and Western blot analysis, as indicated in “Materials and Methods.” (FIG. 8A) Detection of Cyclin D1; (FIG. 8B) Detection of Bcl-xL. Positions of Cyclin D1 and Bcl-xL proteins are shown. Beta-actin levels are shown for normalizing for equal total protein. Data are representative of 3 independent determinations.
Western blot—Whole-cell lysates were prepared in boiling sodium dodecyl sulfate (SDS) sample-loading buffer to extract total proteins from the cytoplasm and nucleus. Equivalent amounts of total cellular protein were electrophoresed on an SDS-10% polyacrylamide gel and transferred onto nitrocellulose membranes. Probing of nitrocellulose membranes with primary antibodies and detection of horseradish peroxidase-conjugated secondary antibodies by enhanced chemiluminescence (Amersham, Piscataway, N.J.) were performed as previously described (Garcia et al., 2001; Turkson et al., 2004b; Zhang et al., 2000). […]

For `CC(O)CN1CCN(CC(C)O)CC1` (stereo not drawn) [PLATINUM-401], the “influence of inactive Stat5 monomer on compound's effect on Stat3 DNA-binding activity” value (inactive Stat5 monomer) was “failed to significantly influence”, the “induction of NFκB promoter-driven luciferase reporter activity” value (NFκB-Luc) was “no inhibitory effects” and the “Cyclin D1 level” value (Cyclin D1) was “significantly diminished”.
